SMILES strings stand for the structures.

For the experiment, the target named is T1, AP-2α (TFAP2A) (Homo sapiens, UniProt P05549).
T1 construct: endogenous full-length protein in intact HEP3B cells; western blot read-out
Kind of experiment: cellular thermal shift assay (CETSA), western blot. The class given is cell-based. The conditions noted are these: HEP3B cells treated with LEI110 or DMSO for 1 h, then heated 3 min at increasing temperatures.

T1 sequence (P05549 whole entry): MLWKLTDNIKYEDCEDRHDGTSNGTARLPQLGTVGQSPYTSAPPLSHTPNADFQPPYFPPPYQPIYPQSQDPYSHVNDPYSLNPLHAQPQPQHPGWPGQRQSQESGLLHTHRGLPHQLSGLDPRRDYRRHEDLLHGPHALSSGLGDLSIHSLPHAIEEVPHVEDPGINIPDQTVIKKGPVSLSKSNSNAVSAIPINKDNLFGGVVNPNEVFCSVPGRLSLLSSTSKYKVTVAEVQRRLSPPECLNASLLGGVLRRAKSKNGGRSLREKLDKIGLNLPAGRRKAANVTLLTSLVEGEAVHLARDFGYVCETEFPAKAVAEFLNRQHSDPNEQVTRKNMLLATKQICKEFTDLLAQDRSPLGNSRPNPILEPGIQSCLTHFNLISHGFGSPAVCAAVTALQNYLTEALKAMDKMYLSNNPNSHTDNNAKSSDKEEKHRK

Turning to `O=C(CCCc1ccccc1)C(=O)NCCc1ccc(Oc2ccc(C(F)(F)F)cn2)cc1` [LEI110], the “cellular thermal shift assay (CETSA), western blot” value is on record as “the stabilization of AP-2α by LEI110 was observed in the CETSA”.

The record behind these values is paper PMC10951303, “Macroscopic inhibition of DNA damage repair pathways by targeting AP-2α with LEI110 eradicates hepatocellular carcinoma” (Communications Biology, 2024).
